Measurements taken from BindingDB's records for doi:10.1016/0960-894X(95)00565-B (1996).

Target: Arachidonate 15-lipoxygenase (Oryctolagus cuniculus)
Assay: Inhibitory activity against reticulocyte 15-lipoxygenase in rabbit was evaluated.

Row | SMILES | IC50
1 | O=C(O)c1cccc(C(=O)Nc2ccc(CCc3ccc(O)c(O)c3)cc2)c1O [N-{4-[2-(3,4-Dihydroxy-phenyl)-ethyl]-phenyl}-2-hydroxy-isophthalamic acid] | > 25 µM
2 | COc1cc(CCc2ccc(NC(=O)c3ccc(C)cc3O)cc2)ccc1O [2-Hydroxy-N-{4-[2-(4-hydroxy-3-methoxy-phenyl)-ethyl]-phenyl}-4-methyl-benzamide] | > 25 µM
3 | O=C(Nc1ccc(CCc2ccc(O)c(O)c2)cc1)c1ccc(-c2ccccc2)cc1O [3-Hydroxy-biphenyl-4-carboxylic acid {4-[2-(3,4-dihydroxy-phenyl)-ethyl]-phenyl}-amide] | > 25 µM
4 | O=C(Nc1ccc(CCc2ccc(O)c(O)c2)cc1)c1cc(Br)ccc1O [5-Bromo-N-{4-[2-(3,4-dihydroxy-phenyl)-ethyl]-phenyl}-2-hydroxy-benzamide] | 1.5 µM
5 | COc1ccc(CCc2ccc(NC(=O)c3ccccc3O)cc2)cc1OC [N-{4-[2-(3,4-Dimethoxy-phenyl)-ethyl]-phenyl}-2-hydroxy-benzamide] | > 25 µM
6 | O=C(Nc1ccc(CCc2ccc(O)c(O)c2)cc1)c1cccc(Cl)c1O [3-Chloro-N-{4-[2-(3,4-dihydroxy-phenyl)-ethyl]-phenyl}-2-hydroxy-benzamide] | 1.2 µM
7 | Cc1ccc(C(=O)N(C)c2ccc(CCc3ccc(O)c(O)c3)cc2)c(O)c1 [N-{4-[2-(3,4-Dihydroxy-phenyl)-ethyl]-phenyl}-2-hydroxy-4,N-dimethyl-benzamide] | 5 µM
8 | O=C(Nc1ccc(CCc2ccc(O)c(O)c2)cc1)c1ccc(O)cc1O [N-{4-[2-(3,4-Dihydroxy-phenyl)-ethyl]-phenyl}-2,4-dihydroxy-benzamide] | 5 µM
